Test results taken from patent US8450315B2, “Phosphoinositide 3-kinase inhibitor compounds and methods of use” (Genentech, Inc., priority 2006, dated 2013).

Tests used:
[1] = biological target: human PI3K isoform delta (p110 delta) (Homo sapiens, UniProt O00329); assay: p110 isoform selectivity scintillation proximity assay (SPA), delta isoform; format: biochemical; settings: fold potency over delta relative to alpha, calculated from IC50 values (SPA)
Protocol: (§1) Binding of Formula Ia and Ib compounds from Tables 1a and 1b to purified preparations of p110 isoforms alpha, beta, delta, and gamma was measured by a Scintillation Proximity Assay (SPA) to determine binding activity (IC50 μMol) and selectivity of binding of beta, delta, and gamma isoforms relative to alpha (Example 365). These values are expressed in Table 2.
(§2) The ability of Formula Ia and Ib compounds from Tables 1a and 1b to inhibit the lipid kinase activity of purified preparations of human PI3K isoforms alpha, beta, delta, and gamma was determined by a radiometric scintillation proximity assay (SPA, GE Healthcare, Amersham Biosciences). Concentration dependent inhibition at 50% (IC50 μMol) was determined for all four isoforms […] and fold potency over beta, delta, and gamma relative to alpha was calculated for a selection of compounds in Table 2. Each compound has a p110 alpha IC50<1 μMol.

[2] = biological target: human PI3K isoform beta (p110 beta) (Homo sapiens, UniProt P42338); assay: p110 isoform selectivity scintillation proximity assay (SPA), beta isoform; format: biochemical; settings: fold potency over beta relative to alpha, calculated from IC50 values (SPA)
human PI3K isoform beta (p110 beta), sequence (P42338 whole entry, canonical isoform): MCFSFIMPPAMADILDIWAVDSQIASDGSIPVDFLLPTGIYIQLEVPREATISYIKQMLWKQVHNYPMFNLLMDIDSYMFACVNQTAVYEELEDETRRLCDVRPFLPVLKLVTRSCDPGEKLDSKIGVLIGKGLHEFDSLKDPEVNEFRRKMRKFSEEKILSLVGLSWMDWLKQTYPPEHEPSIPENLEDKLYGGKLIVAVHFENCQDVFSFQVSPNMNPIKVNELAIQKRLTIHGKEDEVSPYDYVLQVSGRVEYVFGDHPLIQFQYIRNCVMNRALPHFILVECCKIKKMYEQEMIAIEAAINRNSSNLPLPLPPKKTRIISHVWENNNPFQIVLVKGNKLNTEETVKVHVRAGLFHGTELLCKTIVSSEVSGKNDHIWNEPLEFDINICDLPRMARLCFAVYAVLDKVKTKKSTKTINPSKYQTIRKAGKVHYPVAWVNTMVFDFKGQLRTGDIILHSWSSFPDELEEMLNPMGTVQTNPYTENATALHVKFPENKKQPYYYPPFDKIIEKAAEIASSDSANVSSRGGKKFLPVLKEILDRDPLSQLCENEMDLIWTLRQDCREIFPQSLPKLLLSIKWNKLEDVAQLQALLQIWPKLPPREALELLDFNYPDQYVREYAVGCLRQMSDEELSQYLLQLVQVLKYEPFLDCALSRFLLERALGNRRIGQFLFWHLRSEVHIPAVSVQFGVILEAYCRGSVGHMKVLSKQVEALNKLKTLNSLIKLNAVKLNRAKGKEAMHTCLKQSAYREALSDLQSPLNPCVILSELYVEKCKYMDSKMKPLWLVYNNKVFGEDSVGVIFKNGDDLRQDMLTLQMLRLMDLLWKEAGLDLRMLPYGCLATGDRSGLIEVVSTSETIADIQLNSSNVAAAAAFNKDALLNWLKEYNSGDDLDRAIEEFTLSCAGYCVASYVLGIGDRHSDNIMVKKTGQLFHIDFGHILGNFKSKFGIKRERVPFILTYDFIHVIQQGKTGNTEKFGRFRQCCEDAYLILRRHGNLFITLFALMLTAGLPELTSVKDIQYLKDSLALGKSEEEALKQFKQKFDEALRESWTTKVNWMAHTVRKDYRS
human PI3K isoform beta (p110 beta), sequence (P27986 whole entry partner, canonical isoform): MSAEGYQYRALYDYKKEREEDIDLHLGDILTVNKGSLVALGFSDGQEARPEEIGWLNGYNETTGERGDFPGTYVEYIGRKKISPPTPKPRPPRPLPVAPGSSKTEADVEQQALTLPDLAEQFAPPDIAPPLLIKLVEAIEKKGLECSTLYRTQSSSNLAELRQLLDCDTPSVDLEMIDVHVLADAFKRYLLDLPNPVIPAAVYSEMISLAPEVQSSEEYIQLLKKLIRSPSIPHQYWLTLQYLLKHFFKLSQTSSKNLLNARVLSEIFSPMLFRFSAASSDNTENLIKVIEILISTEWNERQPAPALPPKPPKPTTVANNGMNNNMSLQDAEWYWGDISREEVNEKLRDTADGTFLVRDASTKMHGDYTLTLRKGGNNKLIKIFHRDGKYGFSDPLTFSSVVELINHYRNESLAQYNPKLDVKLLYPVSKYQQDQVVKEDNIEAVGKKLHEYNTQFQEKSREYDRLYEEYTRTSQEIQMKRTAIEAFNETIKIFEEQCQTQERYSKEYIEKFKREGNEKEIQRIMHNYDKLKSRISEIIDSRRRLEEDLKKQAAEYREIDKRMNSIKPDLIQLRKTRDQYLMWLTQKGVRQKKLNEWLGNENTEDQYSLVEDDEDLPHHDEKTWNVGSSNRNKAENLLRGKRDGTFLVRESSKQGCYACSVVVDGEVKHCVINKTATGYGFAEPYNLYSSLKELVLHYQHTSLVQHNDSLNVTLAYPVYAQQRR
Protocol: as §1, §2

[3] = biological target: human PI3K isoform gamma (p110 gamma) (Homo sapiens, UniProt P48736); assay: p110 isoform selectivity scintillation proximity assay (SPA), gamma isoform; format: biochemical; settings: fold potency over gamma relative to alpha, calculated from IC50 values (SPA)
human PI3K isoform gamma (p110 gamma), sequence (P48736 whole entry, canonical isoform): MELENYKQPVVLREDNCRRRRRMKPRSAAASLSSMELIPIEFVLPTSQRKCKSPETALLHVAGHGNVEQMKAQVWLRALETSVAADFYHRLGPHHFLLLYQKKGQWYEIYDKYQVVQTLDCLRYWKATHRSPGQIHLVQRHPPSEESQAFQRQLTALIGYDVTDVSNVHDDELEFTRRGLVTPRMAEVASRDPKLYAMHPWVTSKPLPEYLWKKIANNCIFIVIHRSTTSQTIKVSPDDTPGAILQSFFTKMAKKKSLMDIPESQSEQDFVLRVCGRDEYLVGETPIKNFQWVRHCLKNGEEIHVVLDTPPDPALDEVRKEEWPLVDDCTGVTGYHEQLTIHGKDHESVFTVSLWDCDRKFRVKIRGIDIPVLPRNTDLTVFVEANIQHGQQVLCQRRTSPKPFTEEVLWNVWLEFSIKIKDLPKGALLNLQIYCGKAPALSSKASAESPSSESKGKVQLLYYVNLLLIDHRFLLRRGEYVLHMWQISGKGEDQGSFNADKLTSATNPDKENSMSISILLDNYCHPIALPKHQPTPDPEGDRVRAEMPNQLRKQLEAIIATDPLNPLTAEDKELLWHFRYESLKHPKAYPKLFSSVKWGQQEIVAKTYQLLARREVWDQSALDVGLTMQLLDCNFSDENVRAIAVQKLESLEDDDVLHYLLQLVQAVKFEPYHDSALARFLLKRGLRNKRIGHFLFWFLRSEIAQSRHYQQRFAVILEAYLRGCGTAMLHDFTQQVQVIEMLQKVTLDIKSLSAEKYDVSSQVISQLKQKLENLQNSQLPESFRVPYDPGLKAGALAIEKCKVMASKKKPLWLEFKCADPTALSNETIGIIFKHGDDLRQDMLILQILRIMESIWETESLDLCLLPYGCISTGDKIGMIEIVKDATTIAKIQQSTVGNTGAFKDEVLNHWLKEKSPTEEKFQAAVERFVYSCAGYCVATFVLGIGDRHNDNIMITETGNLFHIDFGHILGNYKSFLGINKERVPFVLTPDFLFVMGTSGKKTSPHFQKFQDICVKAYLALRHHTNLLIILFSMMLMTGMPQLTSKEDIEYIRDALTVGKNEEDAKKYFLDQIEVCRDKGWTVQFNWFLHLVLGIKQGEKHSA
Protocol: as §1, §2

[4] = cited from earlier work
[5] = cited from earlier work; remark: listed apart in the source

human PI3K isoform delta (p110 delta), sequence (O00329 whole entry, canonical isoform): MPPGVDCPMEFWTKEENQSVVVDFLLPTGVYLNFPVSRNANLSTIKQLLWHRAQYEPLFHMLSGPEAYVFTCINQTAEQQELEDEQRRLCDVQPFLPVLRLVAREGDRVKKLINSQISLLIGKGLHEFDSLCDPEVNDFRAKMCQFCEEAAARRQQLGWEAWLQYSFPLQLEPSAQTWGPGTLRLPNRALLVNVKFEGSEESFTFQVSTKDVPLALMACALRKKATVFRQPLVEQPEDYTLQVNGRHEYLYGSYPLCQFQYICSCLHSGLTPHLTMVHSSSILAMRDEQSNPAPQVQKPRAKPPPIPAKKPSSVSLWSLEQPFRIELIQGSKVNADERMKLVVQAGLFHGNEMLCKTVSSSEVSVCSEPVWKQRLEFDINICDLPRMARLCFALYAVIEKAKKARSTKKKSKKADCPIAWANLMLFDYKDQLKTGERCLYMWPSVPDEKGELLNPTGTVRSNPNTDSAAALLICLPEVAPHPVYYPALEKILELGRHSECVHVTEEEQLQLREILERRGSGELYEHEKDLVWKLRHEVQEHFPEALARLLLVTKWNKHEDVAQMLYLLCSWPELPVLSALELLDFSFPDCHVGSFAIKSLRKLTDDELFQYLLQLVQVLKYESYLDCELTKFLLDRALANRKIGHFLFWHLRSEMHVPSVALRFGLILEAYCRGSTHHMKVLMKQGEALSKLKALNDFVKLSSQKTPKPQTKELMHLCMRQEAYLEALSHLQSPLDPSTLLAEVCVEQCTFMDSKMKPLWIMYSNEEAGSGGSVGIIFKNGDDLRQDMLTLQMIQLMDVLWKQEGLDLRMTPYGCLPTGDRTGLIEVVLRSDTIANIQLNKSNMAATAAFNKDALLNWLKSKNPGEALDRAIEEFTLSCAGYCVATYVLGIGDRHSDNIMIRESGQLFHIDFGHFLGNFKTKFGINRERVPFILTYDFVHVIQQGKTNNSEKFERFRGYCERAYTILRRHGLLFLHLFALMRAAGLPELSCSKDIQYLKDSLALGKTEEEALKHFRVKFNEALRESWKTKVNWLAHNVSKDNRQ
human PI3K isoform delta (p110 delta), sequence (P27986 whole entry partner, canonical isoform): as the sequence (P27986 whole entry partner, canonical isoform) above

Row | SMILES | alpha/delta [1] | alpha/beta [2] | alpha/gamma [3] | metabolism in animals ([4]; animals) | pharmacokinetics ([4]; in vivo) | aqueous solubility [5]
1 | c1cc2cc(-c3nc(N4CCOCC4)c4sc(-c5ccc(N6CCOCC6)nc5)cc4n3)cnc2[nH]1 [Compound 428, 4-morpholino-6-(6-morpholinopyridin-3-yl)-2-(1H-pyrrolo[2,3-b]pyridin-5-yl)thieno[3,2-d]pyrimidine] | >10 | >10 | >10 | – | – | –
2 | Nc1nc(-c2cc3nc(-c4cnc5[nH]ccc5c4)nc(N4CCOCC4)c3s2)cs1 [Compound 429, 4-(4-morpholino-2-(1H-pyrrolo[2,3-b]pyridin-5-yl)thieno[3,2-d]pyrimidin-6-yl)thiazol-2-amine] | >10 | >10 | >10 | – | – | –
3 | O=c1cc(N2CCOCC2)oc2c(-c3ccccc3)cccc12 [LY294002, 2-(4-morpholinyl)-8-phenyl-4H-1-benzopyran-4-one] | – | – | – | rapidly metabolized in animals | poor pharmacokinetics | lack of aqueous solubility

Second part, led by results:

Row | alpha/delta [1] | alpha/beta [2] | alpha/gamma [3] | SMILES | metabolism in animals ([4]; animals) | pharmacokinetics ([4]; in vivo) | aqueous solubility [5]
4 | >10 | >10 | >10 | Cc1c(-c2cccc(S(C)(=O)=O)c2)sc2c(N3CCOCC3)nc(-c3cnc4[nH]ccc4c3)nc12 [Compound 395, 7-methyl-6-(3-(methylsulfonyl)phenyl)-4-morpholino-2-(1H-pyrrolo[2,3-b]pyridin-5-yl)thieno[3,2-d]pyrimidine] | – | – | –
5 | >10 | >10 | >10 | CN(Cc1cc2c(N3CCOCC3)nc(-c3cnc4[nH]ccc4c3)nc2s1)S(C)(=O)=O [Compound 417, N-methyl, N-methylsulfonyl(4-morpholino-2-(1H-pyrrolo[2,3-b]pyridin-5-yl)thieno[2,3-d]pyrimidin-6-yl)methanamine] | – | – | –
6 | 10 | >10 | >10 | CS(=O)(=O)c1cccc(-c2cc3nc(-c4cnc5[nH]ccc5c4)nc(N4CCOCC4)c3s2)c1 [Compound 418, 6-(3-(methylsulfonyl)phenyl)-4-morpholino-2-(1H-pyrrolo[2,3-b]pyridin-5-yl)thieno[3,2-d]pyrimidine] | – | – | –
7 | <10 | >10 | >10 | CC(C)(O)c1cc2nc(-c3cnc4[nH]ccc4c3)nc(N3CCOCC3)c2s1 [Compound 422, 2-(4-morpholino-2-(1H-pyrrolo[2,3-b]pyridin-5-yl)thieno[3,2-d]pyrimidin-6-yl)-propan-2-ol] | – | – | –
